According to ChEMBL document CHEMBL6177933, “Discovery of Sophoridine α-Aryl Propionamide Derivative ZM600 as a Novel Antihepatic Fibrosis Agent” (J Med Chem, 2024):
Calls of active or inactive are those of the source. The calls are words filed in the database; no cut-off is given here.

Columns and labels:
[1] = Cytotoxicity against human LX-2 cells assessed as reduction in cell viability measured after 48 hrs by CCK-8 assay; format: toxicity, cell-based
RAW264.7 [2] = experiment: Inhibition of LPS-induced NFkappaB transcriptional activity in mouse RAW264.7 cells at 10 uM preincubated for 2 hrs followed by LPS stimulation and measured after 6 hrs by luciferase reporter gene assay relative to control; format: cell-based; details: time 8.0 hrs
RAW264.7 [3] = experiment: Inhibition of LPS-induced NFkappaB transcriptional activity in mouse RAW264.7 cells at 20 uM preincubated for 2 hrs followed by LPS stimulation and measured after 6 hrs by luciferase reporter gene assay relative to control; format: cell-based; details: time 8.0 hrs
RAW264.7 [4] = experiment: Antiinflammatory activity in mouse RAW264.7 cells assessed as inhibition of TGFbeta1-induced collagen 1 expression at 5 to 20 uM preincubated for 2 hrs […] and measured after 48 hrs by Western blot analysis; format: functional, cell-based; details: dose 5-20 µM, time 50.0 hrs
RAW264.7 [5] = experiment: Antiinflammatory activity in mouse RAW264.7 cells assessed as inhibition of TGFbeta1-induced alpha-SMA expression at 5 to 20 uM preincubated for 2 hrs […] and measured after 48 hrs by Western blot analysis; format: functional, cell-based; details: dose 5-20 µM, time 50.0 hrs
RAW264.7 [6] = experiment: Inhibition of LPS-induced NFkappaB transcriptional activity in mouse RAW264.7 cells at 5 uM preincubated for 2 hrs followed by LPS stimulation and measured after 6 hrs by luciferase reporter gene assay relative to control; format: cell-based; details: time 8.0 hrs

Structure (SMILES) | IC50 at 48 h [1] | fold change (FC) (RAW264.7 [2]) | fold change (FC) (RAW264.7 [3]) | inhibition (RAW264.7 [4]) | inhibition (RAW264.7 [5]) | fold change (FC) (RAW264.7 [6])
O=C1CCC[C@@H]2[C@H]3CCCN4CCC[C@H](CN12)[C@@H]34 [SOPHORIDINE] | > 100 µM | 0.94 | 1.05 | inactive | inactive | 1.03
COC(=O)CCC[C@@H]1[C@H]2CCCN3CCC[C@H](CN1C(=O)[C@H](C)c1ccc4cc(OC)ccc4c1)[C@@H]23 | 63.5 µM | 0.99 | 0.94 |  |  | 1.02
COC(=O)CCC[C@@H]1[C@H]2CCCN3CCC[C@H](CN1C(=O)Cc1ccc(-c4ccccc4)c(F)c1)[C@@H]23 | 14.5 µM | 1.13 | 1.04 |  |  | 0.97
COC(=O)CCC[C@@H]1[C@H]2CCCN3CCC[C@H](CN1C(=O)Cc1ccc(-c4cccc(F)c4)cc1)[C@@H]23 | 53.3 µM | 1.16 | 1.04 |  |  | 1.21
COC(=O)CCC[C@@H]1[C@H]2CCCN3CCC[C@H](CN1C(=O)Cc1ccc(-n4c(C)ccc4C)cc1)[C@@H]23 | 96 µM | 0.93 | 1.08 |  |  | 1.05
COC(=O)CCC[C@@H]1[C@H]2CCCN3CCC[C@H](CN1C(=O)CC1=C(C)/C(=C/c4ccc([S+](C)[O-])cc4)c4ccc(F)cc41)[C@@H]23 (some centres not stated) | 61.8 µM | 1 | 0.99 |  |  | 0.99
COC(=O)CCC[C@@H]1[C@H]2CCCN3CCC[C@H](CN1C(=O)Cc1ccc(-c4ccccc4)cc1)[C@@H]23 | 31.7 µM | 0.94 | 0.85 |  |  | 0.99
COC(=O)CCC[C@@H]1[C@H]2CCCN3CCC[C@H](CN1C(=O)C(C)c1ccc(CC(C)C)cc1)[C@@H]23 (some centres not stated) | 53 µM | 1.04 | 1 |  |  | 1.03
COC(=O)CCC[C@@H]1[C@H]2CCCN3CCC[C@H](CN1C(=O)COC(=O)Cc1ccccc1Nc1c(Cl)cccc1Cl)[C@@H]23 | 14.7 µM | 0.93 | 0.81 |  |  | 0.93
COC(=O)CCC[C@@H]1[C@H]2CCCN3CCC[C@H](CN1C(=O)C(C)c1ccc(-c4ccccc4)cc1)[C@@H]23 (some centres not stated) | 21.9 µM | 1.08 | 1.04 |  |  | 1.01
